This note sets out measurements from US20160244436A1, “NOVEL FUNCTIONALIZED 5-(PHENOXYMETHYL)-1,3-DIOXANE ANALOGS EXHIBITING CYTOCHROME P450 INHIBITION AND THEIR METHOD OF USE” (CORTENDO AB (PUBL), priority 2013, published 2016).

One test addresses T1, recombinant CYP-17 (Homo sapiens, UniProt P05093).
T1 construct: expressed in transfected cells; host or cells: AD293
T1 sequence (P05093 1-508): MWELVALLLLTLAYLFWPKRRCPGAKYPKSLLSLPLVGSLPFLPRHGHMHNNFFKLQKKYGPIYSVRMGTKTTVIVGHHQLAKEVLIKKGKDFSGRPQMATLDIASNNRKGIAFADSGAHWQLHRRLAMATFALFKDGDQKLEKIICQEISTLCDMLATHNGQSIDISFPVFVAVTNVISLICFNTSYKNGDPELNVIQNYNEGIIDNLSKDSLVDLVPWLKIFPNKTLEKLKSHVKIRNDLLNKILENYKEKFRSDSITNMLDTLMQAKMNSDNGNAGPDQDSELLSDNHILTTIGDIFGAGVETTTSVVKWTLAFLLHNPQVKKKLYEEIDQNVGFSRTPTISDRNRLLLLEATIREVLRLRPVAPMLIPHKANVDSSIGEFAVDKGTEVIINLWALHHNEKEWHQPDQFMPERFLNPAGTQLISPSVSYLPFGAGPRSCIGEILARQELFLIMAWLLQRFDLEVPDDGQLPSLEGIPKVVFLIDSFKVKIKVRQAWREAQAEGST
Put plainly: Cyp17 assay: AD293 cells over-expressing recombinant CYP-17, 3H-acetic acid release from [21-3H] 17α-hydroxyl-Pregnenolone. The format is cell-based. As to the method:
Cyp17 assay protocol: AD293 cells that stably over-express recombinant CYP-17 were seeded in 96 well plates coated with poly D-lysine (15,000 cell per well) and incubated at 37° C. for 24 hours in Dulbecco's Modified Eagle Medium (DMEM) with Fetal Bovine Serum (FBS) that is stripped of hormones by charcoal treatment. The media is then removed, the cells are washed once with Phosphate buffer saline solution, and 50 μL Dulbecco's Modified Eagle Medium (DMEM) with Fetal Bovine Serum (FBS) that is stripped of hormones by charcoal treatment is added. Compounds of the disclosure are then added to the wells in eight concentration spanning 10 μM to 4.5 nM, and the plates are incubated for an additional 60 minutes at 37° C. [21-^3H] 17α-hydroxyl-Pregnenolone is then added (50 nCi per well, 31.25 nM) and the plates are incubated for an additional 4 hours at 37° C. The media is then collected, 200 μL, of chloroform is added, and the mixture is shaken for 1 hour. The aqueous layer is then separated and analyzed for the presence of ^3H-acetic acid using a Perkin Elmer Topcount NXT to determine IC50s of the compounds of the disclosure.
Regarding `CS(=O)(=O)N1CCN(c2ccc(CO[C@H]3CO[C@@](Cn4ccnc4)(c4ccccc4Cl)OC3)cc2)CC1` [Example 500013], the half-inhibitory concentration (IC50) (in general, the concentration that gives 50% inhibition) is 1500 nM.

Regarding `O=S(=O)(C1CC1)N1CCN(c2ccc(CO[C@H]3CO[C@](Cn4ccnc4)(c4ccc(Cl)cc4Cl)OC3)cc2)CC1` [Example 500018], the 50% inhibitory concentration (IC50) is 11 nM.

Regarding `CC(C)S(=O)(=O)N1CCN(c2ccc(CO[C@H]3CO[C@](Cn4ccnc4)(c4ccc(Cl)cc4Cl)OC3)cc2)CC1` [Example 500020], the IC50 worked out at 11 nM.

Consider `CC(=O)N1CCN(c2ccc(CO[C@H]3CO[C@@](Cn4ccnc4)(c4ccccc4Cl)OC3)cc2)CC1` [Example 500004], for which the IC50 is at least 10000 nM.

Consider `Clc1ccccc1[C@]1(Cn2ccnc2)OC[C@H](OCc2ccc(N3CCOCC3)cc2)CO1` [Example 500006], for which the IC50 is 8000 nM.

For `CCS(=O)(=O)N1CCN(c2ccc(CO[C@H]3CO[C@](Cn4ccnc4)(c4ccc(Cl)cc4Cl)OC3)cc2)CC1` [Example 500021], the IC50 came to 9 nM.

As to `N#Cc1cccc(S(=O)(=O)N2CCN(c3ccc(CO[C@H]4CO[C@](Cn5ccnc5)(c5ccc(Cl)cc5Cl)OC4)cc3)CC2)c1` [Example 500016], the IC50 turned out to be 75 nM.

As to `O=S(=O)(c1cccc(OC(F)(F)F)c1)N1CCN(c2ccc(CO[C@H]3CO[C@](Cn4ccnc4)(c4ccc(Cl)cc4Cl)OC3)cc2)CC1` [Example 500022], the IC50 stood at 101 nM.

For the compound `Clc1ccc([C@]2(Cn3ccnc3)OC[C@@H](OCc3ccc(-c4ccncc4)cc3)CO2)c(Cl)c1` [Example 500024], the 50% inhibitory concentration (IC50) came out at 33 nM.

As to `CCOC(=O)CNC(=O)N1CCN(c2ccc(CO[C@H]3CO[C@@](Cn4ccnc4)(c4ccccc4Cl)OC3)cc2)CC1` [Example 510019], the IC50 is at least 10000 nM.

Take `CC(=O)N1CCN(c2ccc(CO[C@H]3CO[C@@](Cn4ccnc4)(c4ccc(Cl)cc4Cl)OC3)cc2)CC1` [Example 500019]: the IC50 stood at 1100 nM.

The target of the next test is T2, recombinant CYP-11 (Homo sapiens, UniProt P15538).
T2 construct: expressed in transfected cells; host or cells: AD293
T2 sequence (P15538 25-503): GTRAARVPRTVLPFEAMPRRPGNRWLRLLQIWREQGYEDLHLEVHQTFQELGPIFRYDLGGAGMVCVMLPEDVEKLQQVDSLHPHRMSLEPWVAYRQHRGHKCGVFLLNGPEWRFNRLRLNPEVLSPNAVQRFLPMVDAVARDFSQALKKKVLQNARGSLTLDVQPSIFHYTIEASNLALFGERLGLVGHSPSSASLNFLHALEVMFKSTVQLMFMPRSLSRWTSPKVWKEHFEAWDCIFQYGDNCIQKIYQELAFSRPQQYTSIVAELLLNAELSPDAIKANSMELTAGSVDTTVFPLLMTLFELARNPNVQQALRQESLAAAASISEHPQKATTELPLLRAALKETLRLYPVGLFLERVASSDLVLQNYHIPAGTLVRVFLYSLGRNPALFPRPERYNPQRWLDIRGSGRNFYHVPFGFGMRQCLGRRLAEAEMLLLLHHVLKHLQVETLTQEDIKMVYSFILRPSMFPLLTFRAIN
Put plainly: Cyp11 assay: AD293 cells over-expressing recombinant CYP-11, cortisol formation from 11-deoxycortisol by LC/MS. The format is cell-based. How it is done: Cyp11 assay protocol: AD293 cells that stably over-express recombinant CYP-11 were seeded in 96 well plates coated with poly D-lysine (15,000 cell per well) and incubated at 37° C. for 24 hours in Dulbecco's Modified Eagle Medium (DMEM) with Fetal Bovine Serum (FBS) that is stripped of hormones by charcoal treatment. The media is then removed, the cells are washed once with Phosphate buffer saline solution, and 50 μL Dulbecco's Modified Eagle Medium (DMEM) with Fetal Bovine Serum (FBS) that is stripped of hormones by charcoal treatment is added. Compounds of the disclosure are then added to the wells in eight concentration spanning 10 μM to 4.5 nM, and the plates are incubated for an additional 60 minutes at 37° C. 11-deoxycortisol is then added (2.0 μM) and the plates are incubated for an additional 12 hours at 37° C. After incubation, 50 uL of the supernatant (medium) is transferred into a fresh plate and 150 uL of an acetonitrile solution containing 200 ng/ml of Telmisartan is added. The sample is mixed and then placed in a centrifuge at 2000 rpm for 5 minutes. 100 uL of the supernatant is transferred into a fresh 96 well deep well plate, 100 uL of 1:1 methanol:water was added, the solution was mixed and then analyzed by LC/MS for the presence of cortisol using an Agilent 1200 RRLC/ABSCIEX API4000 LC-MS or Shimadzu Prominance/ABSCIEX API4000 LC-MS to determine IC5os of the compounds of the disclosure.
`O=S(=O)(C1CC1)N1CCN(c2ccc(CO[C@H]3CO[C@](Cn4ccnc4)(c4ccc(Cl)cc4Cl)OC3)cc2)CC1` [Example 500018]: the IC50 is 6 nM.

In the case of `CC(C)S(=O)(=O)N1CCN(c2ccc(CO[C@H]3CO[C@](Cn4ccnc4)(c4ccc(Cl)cc4Cl)OC3)cc2)CC1` [Example 500020], the IC50 was 25 nM.

As to `CCS(=O)(=O)N1CCN(c2ccc(CO[C@H]3CO[C@](Cn4ccnc4)(c4ccc(Cl)cc4Cl)OC3)cc2)CC1` [Example 500021], the IC50 was 200 nM.

As to `N#Cc1cccc(S(=O)(=O)N2CCN(c3ccc(CO[C@H]4CO[C@](Cn5ccnc5)(c5ccc(Cl)cc5Cl)OC4)cc3)CC2)c1` [Example 500016], the IC50 amounted to 37 nM.

For `O=S(=O)(c1cccc(OC(F)(F)F)c1)N1CCN(c2ccc(CO[C@H]3CO[C@](Cn4ccnc4)(c4ccc(Cl)cc4Cl)OC3)cc2)CC1` [Example 500022], the IC50 was 13 nM.

As for `Clc1ccc([C@]2(Cn3ccnc3)OC[C@@H](OCc3ccc(-c4ccncc4)cc3)CO2)c(Cl)c1` [Example 500024], the IC50 amounted to 23 nM.

With `CCOC(=O)CNC(=O)N1CCN(c2ccc(CO[C@H]3CO[C@@](Cn4ccnc4)(c4ccccc4Cl)OC3)cc2)CC1` [Example 510019], the IC50 is 5800 nM.

As to `CC(=O)N1CCN(c2ccc(CO[C@H]3CO[C@@](Cn4ccnc4)(c4ccc(Cl)cc4Cl)OC3)cc2)CC1` [Example 500019], the IC50 turned out to be 12 nM.

In a further test the target is T3, recombinant CYP-21 (Homo sapiens, UniProt P08686).
T3 construct: expressed in transfected cells; host or cells: AD293
T3 sequence (P08686 1-495): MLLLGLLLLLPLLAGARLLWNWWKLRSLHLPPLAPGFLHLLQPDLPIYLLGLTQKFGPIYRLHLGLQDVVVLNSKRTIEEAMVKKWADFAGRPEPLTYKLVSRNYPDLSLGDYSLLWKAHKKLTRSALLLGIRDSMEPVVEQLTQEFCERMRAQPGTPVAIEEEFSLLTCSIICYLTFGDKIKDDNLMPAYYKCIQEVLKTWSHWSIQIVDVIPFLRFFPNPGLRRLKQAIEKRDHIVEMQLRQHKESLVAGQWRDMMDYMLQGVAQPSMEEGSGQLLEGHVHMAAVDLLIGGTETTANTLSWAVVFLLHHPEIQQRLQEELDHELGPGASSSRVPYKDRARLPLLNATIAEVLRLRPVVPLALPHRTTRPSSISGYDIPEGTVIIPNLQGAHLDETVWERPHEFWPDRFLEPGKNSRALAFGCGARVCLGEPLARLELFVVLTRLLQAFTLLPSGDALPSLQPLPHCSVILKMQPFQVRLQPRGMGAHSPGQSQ
Put plainly: Cyp21 assay: AD293 cells over-expressing recombinant CYP-21, 11-deoxycortisol formation from 17α-OH Progesterone by LC/MS. The format is cell-based. As to the method: Cyp21 assay protocol: AD293 cells that stably over-express recombinant CYP-21 were seeded in 96 well plates coated with poly D-lysine (10,000 cell per well) and incubated at 37° C. for 24 hours in Dulbecco's Modified Eagle Medium (DMEM) with Fetal Bovine Serum (FBS) that is stripped of hormones by charcoal treatment. The media is then removed, the cells are washed once with Phosphate buffer saline solution, and 50 μL Dulbecco's Modified Eagle Medium (DMEM) with Fetal Bovine Serum (FBS) that is stripped of hormones by charcoal treatment is added. Compounds of the disclosure are then added to the wells in eight concentration spanning 10 μM to 4.5 nM, and the plates are incubated for an additional 60 minutes at 37° C. 17α-OH Progesterone is then added (1.0 μM) and the plates are incubated for an additional 45 minutes at 37° C. After incubation, 50 uL of the supernatant (medium) is transferred into a fresh plate and 150 uL of an acetonitrile solution containing 200 ng/ml of Telmisartan is added. The sample is mixed and then placed in a centrifuge at 2000 rpm for 5 minutes. 100 uL of the supernatant is transferred into a fresh 96 well deep well plate, 100 uL of 1:1 methanol:water was added, the solution was mixed and then analyzed by LC/MS for the presence of 11-deoxycortisol using an Agilent 1200 RRLC/ABSCIEX API4000 LC-MS or Shimadzu Prominance/ABSCIEX API4000 LC-MS to determine IC5os of the compounds of the disclosure.
As to `CS(=O)(=O)N1CCN(c2ccc(CO[C@H]3CO[C@@](Cn4ccnc4)(c4ccccc4Cl)OC3)cc2)CC1` [Example 500013], the IC50 stood at 2500 nM.

For `O=S(=O)(C1CC1)N1CCN(c2ccc(CO[C@H]3CO[C@](Cn4ccnc4)(c4ccc(Cl)cc4Cl)OC3)cc2)CC1` [Example 500018], the IC50 is 262 nM.

Consider `CC(C)S(=O)(=O)N1CCN(c2ccc(CO[C@H]3CO[C@](Cn4ccnc4)(c4ccc(Cl)cc4Cl)OC3)cc2)CC1` [Example 500020], for which the IC50 came to 110 nM.

With `Clc1ccccc1[C@]1(Cn2ccnc2)OC[C@H](OCc2ccc(N3CCOCC3)cc2)CO1` [Example 500006], the IC50 stood at 4760 nM.

Take `CCS(=O)(=O)N1CCN(c2ccc(CO[C@H]3CO[C@](Cn4ccnc4)(c4ccc(Cl)cc4Cl)OC3)cc2)CC1` [Example 500021]: the IC50 amounted to 130 nM.

On to `N#Cc1cccc(S(=O)(=O)N2CCN(c3ccc(CO[C@H]4CO[C@](Cn5ccnc5)(c5ccc(Cl)cc5Cl)OC4)cc3)CC2)c1` [Example 500016], for which the IC50 amounted to 415 nM.

With `O=S(=O)(c1cccc(OC(F)(F)F)c1)N1CCN(c2ccc(CO[C@H]3CO[C@](Cn4ccnc4)(c4ccc(Cl)cc4Cl)OC3)cc2)CC1` [Example 500022], the IC50 was determined as 170 nM.

Consider `Clc1ccc([C@]2(Cn3ccnc3)OC[C@@H](OCc3ccc(-c4ccncc4)cc3)CO2)c(Cl)c1` [Example 500024], for which the IC50 is 68 nM.
